Test results from patent US20110293746A1, “Modulation of Gsk-3Beta and Method of Treating Proliferative Disorders” (Agency For Science, Technology and Research, priority 2004, published 2011).

Assays:
HCT116 Bax −/− cells [1] = assay: FACS apoptosis and immunoblot; assay type: cell-based, Human
Protocol: (§1) Cell culture and drug treatments: Human colon cancer cell line HCT116 and its derived isogenic p53^−/−, Puma^−/−, Bax^−/− and p53-inducible DLD cell lines were kindly provided by Dr. Bert Vogelstein (Johns Hopkins University, MD). RKO and RKO/E6 cells were from ATCC. Cells were cultured in DMEM containing 10% FBS. All culture reagents and media were from Invitrogen. 5-Fluorouracil, Adriamycin, etoposide and lithium chloride were purchased from Sigma. GSK-3β specific small molecule inhibitor LY2119301 was a gift from Eli Lilly (Indianapolis) and SB-216763, SB-415283 were obtained from BIOMOL.
(§2) Western blotting, immunoprecipitation and microarray analysis: Cells were scraped, collected and lysed as described previously (Yu, Q., et al. Cancer Res, 62: 5743-5748, 2002). Briefly, cells were lysed with cell lysis buffer (0.3% NP40, 1 mM EDTA, 50 mM Tris-HCl (pH 7.4), 2 mM EGTA, 1% Triton X-100, […], 25 mM NaF, 1 mM Na3VO4, 2 mM AEBSF, 5 μg/ml aprotinin, 1 μg/ml leupeptin) for 30 minutes on ice, and the lysates were clarified by centrifugation at 12,000×g for 15 minutes at 4° C. Protein concentration was quantified (Bio-Rad, Hercules, Calif.) and protein samples (50 μg) were separated by SDS/PAGE and transferred onto Immobilon™ membranes (Millipore, Bedford, Mass.). Antibodies against the following proteins were used: p53 (DO-1), p21, PARP, GSK-α/β, α-Tubulin, and β-actin (Santa Cruz Biotechnology), Puma (Ab-1, Oncogene), Bax (Sigma), phosphor-(Ser9/21)-GSK-3α/β and Caspase-9 (Cell Signaling Technologies), phosphor-(Tyr216/279)-GSK-3α/β (Upstate Biotechnologies), cytochrome c (BD PharMingen). To detect Bax conformational change, cells were lysed in 1% Chaps buffer and the soluble fraction was immunoprecipitated with anti-Bax monoclonal antibody (6A7, BD, PharMingen), followed by immunoblotting with anti-Bax polyclonal antibody. Microarray analysis was performed as described (Kho, P. S., et al. J Biol Chem, 279: 21183-21192, 2004).
(§3) FACS analysis of DNA content and caspase-3 activity: Cells were harvested and fixed in 70% ethanol. Fixed cells were stained with propidium iodide (50 μg/ml) after treatment with RNase (100 μg/ml). The stained cells were analyzed for DNA content by fluorescence-activated cell sorting (FACS) in a FACScalibur™ (Becton Dickinson Instrument, San Jose, Calif.). Cell cycle fractions were quantified using the CellQues™ software (Becton Dickinson). To measure caspase-3 activity, cells were fixed with Cytofix/Cytoperm™ solution (BD PharMingen) as instructed, and then stained with FITC-conjugated rabbit anti-active caspase-3 monoclonal antibody (BD PharMingen). Quantification of cells positive for the caspase-3 detection was performed by flow cytometry.

HCT116 Puma −/− cells = assay: FACS apoptosis and immunoblot; assay type: cell-based, Human
Protocol: as §1, §2, §3

[2] = tested on: p53-responsive genes in HCT116; assay: Microarray analysis of p53-responsive genes; assay type: cell-based, Human; conditions: concurrent treatment with ADR and LY2119301
Protocol: as §2

p53 in HCT116 cells = assay: p53 accumulation in cytosol and mitochondria (subcellular fractionation, Western blot); assay type: cell-based, Human; conditions: in the presence of LY2119301, etoposide 24 h
Protocol: as §2
(§4) Subcellular fractionation: Cells were lysed in mitochondria lysis buffer (210 mM Mannitol, 70 mM Sucrose, 10 mM Hepes (pH, 7.4), 1 mM EDTA, protease inhibitor cocktail) with a Dounce homogenizer and subjected to centrifugation at 1000×g to pellet the nuclei. Post-nuclear supernatant was centrifuged at 10,000×g to pellet the mitochondria-enriched heavy membrane fraction, and the resulting supernatant was further centrifuged to obtain cytosolic fraction. Total proteins (30 μg) from cytosolic or mitochondrial fractions were subjected to immunoblot analysis.

LoVo cells = assay: Apoptosis upon DNA damage; assay type: cell-based, Human; conditions: p53 wild-type, no Bax protein; data not shown
HCT116 cells (Bax+/+) = assay: Mitochondrial membrane potential by JC-1 staining and FACS; assay type: cell-based, Human; conditions: co-treated with LY2119301 and genotoxic treatments
Protocol: (§5) Measurement of mitochondrial permeability transition: Cells were harvested by centrifugation at 300×g at 4° C. for 5 min. Mitochondrial permeability transition was determined by staining the cells with JC-1 (BD PharMingen) according to the manufacturer's instructions. Mitochondrial permeability transition was quantified by flow cytometric determination of cells with decreased red fluorescence, i.e. with mitochondria displaying a lower membrane potential (ΔΨm). Data are given in percentage of cells with low ΔΨm.

HCT116 Bax −/− cells [3] = assay: as above; assay type: cell-based, Human; conditions: co-treated with LY2119301 and genotoxic treatments
Protocol: as §5

p53-inducible DLD1 cells = assay: Apoptosis and immunoblot in tetracycline-inducible p53 expressing cells; assay type: cell-based, Human
Protocol: as §1, §2, §3

Bax = Bax conformational activation (IP with 6A7 antibody, Western blot); assay type: cell-based, Human; conditions: co-treatment with LY2119301 and ADR, etoposide or 5-FU, 24 h
Protocol: as §2

GSK-3β = molecular target: T1, GSK-3β (Homo sapiens, UniProt P49841); assay: Immunoblot analysis of GSK-3 phosphorylation status in HCT116 cells; assay type: cell-based
T1 construct: endogenous in cells; host or cells: HCT116
T1 sequence (P49841 whole entry): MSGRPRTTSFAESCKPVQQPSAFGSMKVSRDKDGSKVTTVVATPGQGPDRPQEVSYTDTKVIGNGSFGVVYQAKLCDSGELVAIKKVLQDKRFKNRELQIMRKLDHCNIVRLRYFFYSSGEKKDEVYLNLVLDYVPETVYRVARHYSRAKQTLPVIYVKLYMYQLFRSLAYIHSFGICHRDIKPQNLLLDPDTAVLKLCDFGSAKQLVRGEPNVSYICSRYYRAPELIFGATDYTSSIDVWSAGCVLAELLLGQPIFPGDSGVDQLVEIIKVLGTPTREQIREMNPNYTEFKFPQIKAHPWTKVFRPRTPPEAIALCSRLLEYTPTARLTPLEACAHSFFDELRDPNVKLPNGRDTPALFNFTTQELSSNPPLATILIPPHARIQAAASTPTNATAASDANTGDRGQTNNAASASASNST
Protocol: (§6) Protein concentration was quantified (Bio-Rad, Hercules, Calif.) and protein samples (50 μg) were separated by SDS/PAGE and transferred onto Immobilon™ membranes (Millipore, Bedford, Mass.). […] To detect Bax conformational change, cells were lysed in 1% Chaps buffer and the soluble fraction was immunoprecipitated with anti-Bax monoclonal antibody (6A7, BD, PharMingen), followed by immunoblotting with anti-Bax polyclonal antibody.
as §4

GSK-3α = molecular target: T2, GSK-3α (Homo sapiens, UniProt P49840); assay: as above; assay type: cell-based
T2 construct: endogenous in cells; host or cells: HCT116
T2 sequence (P49840 whole entry): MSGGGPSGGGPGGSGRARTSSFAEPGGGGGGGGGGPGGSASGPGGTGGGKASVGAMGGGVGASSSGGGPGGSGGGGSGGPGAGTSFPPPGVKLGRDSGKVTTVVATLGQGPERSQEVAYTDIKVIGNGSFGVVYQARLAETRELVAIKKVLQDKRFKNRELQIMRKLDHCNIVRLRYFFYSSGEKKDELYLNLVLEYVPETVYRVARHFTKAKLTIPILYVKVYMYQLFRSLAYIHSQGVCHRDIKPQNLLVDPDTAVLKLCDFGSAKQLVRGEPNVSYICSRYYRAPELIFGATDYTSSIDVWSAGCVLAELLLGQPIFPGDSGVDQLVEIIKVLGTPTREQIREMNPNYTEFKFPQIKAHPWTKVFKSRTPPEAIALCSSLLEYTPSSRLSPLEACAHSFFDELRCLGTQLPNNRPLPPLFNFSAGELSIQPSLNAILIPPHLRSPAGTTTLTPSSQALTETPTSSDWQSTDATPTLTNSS
Protocol: as §6, §4

[4] = LY2119301 with ADR or etoposide
[5] = co-treated with LY2119301 and ADR or etoposide, 24 h
[6] = nuclear and cytoplasmic fractions

SMILES: CN1CCN(c2ccc(NCCNc3ccc([N+](=O)[O-])c(N)n3)nc2-c2ccc(Cl)cc2Cl)C(=O)C1 [LY2119301]
- PARP cleavage (HCT116 Bax −/− cells [1]; [4]): not observed
- apoptosis (HCT116 Bax −/− cells [1]; [5]): completely refractory
- induction of p21 after ADR or etoposide (HCT116 Bax −/− cells [1]; immunoblot): similarly reduced
- p53 accumulation after ADR or etoposide (HCT116 Bax −/− cells [1]; immunoblot): similarly reduced
- PARP cleavage (HCT116 Puma −/− cells; [4]): evident
- apoptosis (HCT116 Puma −/− cells; [5]): marked apoptosis
- induction of p21 after ADR or etoposide (HCT116 Puma −/− cells; immunoblot): similarly reduced
- p53 accumulation after ADR or etoposide (HCT116 Puma −/− cells; immunoblot): similarly reduced
- induction of p53 responsive genes [2]: uniformly attenuated
- etoposide-induced p53 accumulation in cytosol (p53 in HCT116 cells): similarly decreased
- etoposide-induced p53 accumulation in mitochondria (p53 in HCT116 cells): similarly decreased
- apoptosis induced by LY2119301 upon DNA damage (LoVo cells): resistant
- mitochondrial membrane potential (HCT116 cells (Bax+/+)): significant reduction
- reduction of mitochondrial membrane potential (HCT116 Bax −/− cells [3]): not
- Bax activation (p53-inducible DLD1 cells; IP-Western, p53 induction plus LY2119301): similarly seen
- ectopically expressed p53 protein levels (p53-inducible DLD1 cells; Western blot): no effect
- p53 dependent transcription of p21 (p53-inducible DLD1 cells; Western blot): no effect
- apoptosis induced by enforced p53 expression (p53-inducible DLD1 cells; in the presence of LY2119301): significantly increased
- levels of conformationally active Bax (Bax): dramatically increased
- activating tyrosine phosphorylation on GSK-3β (GSK-3β; HCT116 whole lysate immunoblot): almost completely blocked
- inhibitory serine 9 phosphorylation on GSK-3β (GSK-3β; HCT116 whole lysate immunoblot): increase
- tyrosine phosphorylation of GSK-3β (GSK-3β; [6]): blocked
- serine phosphorylation on GSK-3β in cytoplasm and nucleus (GSK-3β; nuclear and cytoplasmic fractions, with or without DNA damage): triggered
- activating tyrosine phosphorylation on GSK-3α (GSK-3α; HCT116 whole lysate immunoblot): almost completely blocked
- inhibitory serine 21 phosphorylation on GSK-3α (GSK-3α; HCT116 whole lysate immunoblot): much lesser extent
- tyrosine phosphorylation of GSK-3α (GSK-3α; [6]): blocked
